Among the test systems are NCI-H460; SNB-78; OVCAR-5; KM-20L2; SF-268; HT-29; NCI-H522; IGROV-1; SN12C; COLO 205; CCRF-CEM; KM12; UACC-62; SK-OV-3; NCI-H226; DMS-114; MDA-MB-231; MDA-N; T47D; MCF7.
Holding throughout (experiment): NCI tumour cell line growth inhibition, 48 h

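Cultured in 96-well plates, cells were exposed to test compound for 48 hours across five concentrations. GI50: concentration for 50% inhibition of growth.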 The source made the active and inactive calls. Cut-off read from the data, not from the text of the source: active = GI50 up to about 1.1 µM and inactive = higher.

As to `c1cc2nnsc2s1`, the GI50 in the assay with NCI-H460, in the assay with SNB-78, with OVCAR-5, with KM-20L2, in the assay with SF-268 and with HT-29 was > 100 µM (inactive) throughout. Besides, the GI50 in the assay on NCI-H522 was > 100 µM (inactive); in the assay on IGROV-1, > 100 µM (inactive); in the assay with SN12C it was > 100 µM (inactive); with COLO 205, 42.3 µM (inactive); in the assay on CCRF-CEM, > 100 µM (inactive); in the assay on KM12, > 100 µM (inactive). Moreover, the GI50 in the assay with UACC-62, in the assay with SK-OV-3 and with NCI-H226 was > 100 µM (inactive) throughout.
With `CC12C/C(=C\c3ccccc3)C(=O)C3C1CCCC32`, the GI50 is > 100 µM (inactive) with NCI-H460; > 100 µM (inactive) with OVCAR-5; 63.1 µM (inactive) in the assay with KM-20L2; > 100 µM (inactive) in the assay on SF-268; 31.6 µM (inactive) with HT-29; 26.5 µM (inactive) in the assay on NCI-H522. The GI50 was > 100 µM (inactive) in the assay with IGROV-1; 41.6 µM (inactive) with DMS-114; > 100 µM (inactive) with SN12C; 87.1 µM (inactive) in the assay with COLO 205; 33.3 µM (inactive) in the assay on CCRF-CEM; 55.1 µM (inactive) in the assay on KM12. For the same compound, the GI50 with UACC-62, in the assay on SK-OV-3 and in the assay on NCI-H226 was > 100 µM (inactive) throughout.
`C1OCN2c3nonc3N3COCN4c5nonc5N1C2C43` (configuration not stated): the GI50 in the assay with NCI-H460 was > 100 µM (inactive); in the assay on OVCAR-5 it was > 100 µM (inactive); in the assay with MDA-MB-231, > 100 µM (inactive); in the assay on SF-268, > 100 µM (inactive); in the assay with HT-29 it was 31.1 µM (inactive); with MDA-N it was 62.8 µM (inactive). Moreover, the GI50 with NCI-H522 was > 100 µM (inactive); in the assay with IGROV-1, > 100 µM (inactive); in the assay with T47D, > 100 µM (inactive); with MCF7 it was 49.1 µM (inactive); in the assay with SN12C it was > 100 µM (inactive); with COLO 205, 40.3 µM (inactive). Further, the GI50 in the assay with CCRF-CEM was 77.8 µM (inactive); with KM12 it was 49.2 µM (inactive); in the assay with UACC-62 it was > 100 µM (inactive); with SK-OV-3 it was > 100 µM (inactive); in the assay with NCI-H226 it was > 100 µM (inactive).
In the case of `CCOC(=O)c1ccc(/N=N/c2cc(C(=O)OCC)ccc2O)cc1`, the GI50 is > 100 µM (inactive) in the assay on NCI-H460; > 100 µM (inactive) with KM-20L2; > 100 µM (inactive) with SF-268; 43.6 µM (inactive) in the assay on HT-29; 41.9 µM (inactive) in the assay on NCI-H522; > 100 µM (inactive) in the assay on IGROV-1. Besides, the GI50 in the assay with DMS-114, with SN12C, with COLO 205, in the assay on CCRF-CEM, in the assay on UACC-62 and in the assay on SK-OV-3 was > 100 µM (inactive) each time.
`CC1(C)C2C/C(=C\c3ccccc3)C(=O)C1C2` (configuration not stated): the GI50 was > 100 µM (inactive) in the assay with NCI-H460; > 100 µM (inactive) in the assay with SNB-78; > 100 µM (inactive) with OVCAR-5; 79.8 µM (inactive) in the assay on SF-268; 87.9 µM (inactive) in the assay with HT-29; 40.9 µM (inactive) in the assay with NCI-H522. The GI50 was > 100 µM (inactive) with IGROV-1; 68.1 µM (inactive) with DMS-114; > 100 µM (inactive) in the assay with SN12C; > 100 µM (inactive) in the assay on COLO 205; > 100 µM (inactive) in the assay with CCRF-CEM; > 100 µM (inactive) in the assay on KM12. Moreover, the GI50 in the assay with UACC-62 and with SK-OV-3 was > 100 µM (inactive) throughout.
Regarding `COc1ccc(/C=C/NC=O)cc1`, the GI50 in the assay on NCI-H460 was > 100 µM (inactive); in the assay on OVCAR-5, > 100 µM (inactive); in the assay on MDA-MB-231 it was 89.5 µM (inactive); in the assay on SF-268, > 100 µM (inactive); in the assay with HT-29 it was > 100 µM (inactive); in the assay on MDA-N, > 100 µM (inactive). The GI50 in the assay on NCI-H522, in the assay on IGROV-1, in the assay on T47D, in the assay with MCF7, in the assay with SN12C and with COLO 205 was > 100 µM (inactive) each time. Besides, the GI50 with CCRF-CEM, in the assay with KM12, in the assay with UACC-62, in the assay on SK-OV-3 and in the assay with NCI-H226 was > 100 µM (inactive) throughout.
For `COc1ccc(CC2c3c(cc(OC)c(OC)c3OC)CCN2C)cc1OC` (configuration not stated), the GI50 in the assay on NCI-H460 is > 100 µM (inactive); with SNB-78 it was 60 µM (inactive); with OVCAR-5, > 100 µM (inactive); with KM-20L2, > 100 µM (inactive); in the assay with SF-268, > 100 µM (inactive); in the assay on HT-29 it was > 100 µM (inactive). The GI50 in the assay with NCI-H522, with SN12C, in the assay on CCRF-CEM and in the assay on KM12 was > 100 µM (inactive) in each case.
With `CSc1nc(=O)c(C#N)c(-c2ccccc2)n1C1OC(COC(C)=O)C(OC(C)=O)C(OC(C)=O)C1OC(C)=O` (configuration not stated), the GI50 with NCI-H460 was 31.3 µM (inactive); in the assay with OVCAR-5 it was > 100 µM (inactive); with MDA-MB-231, > 100 µM (inactive); with SF-268 it was > 100 µM (inactive); with HT-29, > 100 µM (inactive); with MDA-N it was > 100 µM (inactive). Also, the GI50 is > 100 µM (inactive) in the assay with NCI-H522; > 100 µM (inactive) in the assay with IGROV-1; 86.3 µM (inactive) in the assay with T47D; > 100 µM (inactive) in the assay with MCF7; > 100 µM (inactive) with SN12C; > 100 µM (inactive) in the assay with COLO 205. Also, the GI50 in the assay on CCRF-CEM was 99.8 µM (inactive); in the assay on KM12, > 100 µM (inactive); in the assay on UACC-62 it was > 100 µM (inactive); in the assay with SK-OV-3 it was > 100 µM (inactive); in the assay on NCI-H226, > 100 µM (inactive).
Turning to `CC1CCc2c(sc3ncnc(N/N=C/c4ccc(Cl)c(Cl)c4)c23)C1` (configuration not stated), the GI50 with NCI-H460 was 7.4 µM (inactive); in the assay on OVCAR-5, 32.7 µM (inactive); with KM-20L2, 4.69 µM (inactive); in the assay on SF-268 it was 13.3 µM (inactive); with HT-29 it was 13.6 µM (inactive); in the assay with NCI-H522, 5.45 µM (inactive). Moreover, the GI50 is 37.2 µM (inactive) in the assay with IGROV-1; 3.79 µM (inactive) with DMS-114; 19.4 µM (inactive) in the assay with SN12C; 6.17 µM (inactive) with COLO 205; 4.3 µM (inactive) in the assay on CCRF-CEM; 18.2 µM (inactive) with UACC-62. In addition, the GI50 with SK-OV-3 is 25.2 µM (inactive); in the assay on NCI-H226, 16.4 µM (inactive).
On to `CCCn1c(SCCSc2c3ccccc3c(-c3nc(F)nc(F)n3)n2CCC)c2ccccc2c1-c1nc(F)nc(F)n1`, for which the GI50 is > 100 µM (inactive) with NCI-H460; > 100 µM (inactive) in the assay with SNB-78; > 100 µM (inactive) with OVCAR-5; 91.6 µM (inactive) with KM-20L2; > 100 µM (inactive) with SF-268; > 100 µM (inactive) in the assay with HT-29. Besides, the GI50 in the assay with NCI-H522 was > 100 µM (inactive); in the assay on SN12C, > 100 µM (inactive); with COLO 205, 38 µM (inactive); with CCRF-CEM it was 46.9 µM (inactive); in the assay on KM12, > 100 µM (inactive); in the assay on UACC-62, > 100 µM (inactive). The GI50 with SK-OV-3 is > 100 µM (inactive).
In the case of `O=C(C=C1SCCS1)/C=C\c1ccc(Cl)cc1`, the GI50 in the assay on SNB-78 was > 100 µM (inactive); in the assay on SF-268, > 100 µM (inactive); with HT-29 it was 41.4 µM (inactive); in the assay on NCI-H522 it was > 100 µM (inactive); with IGROV-1 it was > 100 µM (inactive); in the assay with SN12C, > 100 µM (inactive). In addition, the GI50 was > 100 µM (inactive) in the assay with COLO 205; 51.3 µM (inactive) with CCRF-CEM; 87.1 µM (inactive) with KM12; 99.8 µM (inactive) in the assay with UACC-62; > 100 µM (inactive) in the assay with SK-OV-3; 83.2 µM (inactive) with NCI-H226.
For the compound `CO[C@]12CCC(=O)N1C=Cc1c2[nH]c2ccccc12`, the GI50 with NCI-H460, in the assay on SNB-78, with OVCAR-5, with SF-268, in the assay with HT-29 and in the assay with IGROV-1 was > 100 µM (inactive) each time. Also, the GI50 in the assay on DMS-114, in the assay on COLO 205, with CCRF-CEM, in the assay with UACC-62 and in the assay with NCI-H226 was > 100 µM (inactive) throughout.
Regarding `C1=C2C3=[N+](CCCC3)CC2Cc2sccc21` (configuration not stated), the GI50 with NCI-H460 is 52.7 µM (inactive); in the assay with OVCAR-5 it was > 100 µM (inactive); in the assay with MDA-MB-231 it was > 100 µM (inactive); in the assay with SF-268 it was > 100 µM (inactive); with HT-29, 53.2 µM (inactive); with MDA-N, > 100 µM (inactive). Further, the GI50 in the assay on NCI-H522 is 53 µM (inactive); in the assay with IGROV-1, > 100 µM (inactive); with T47D it was 74.8 µM (inactive); in the assay on MCF7 it was > 100 µM (inactive); with SN12C, 92.7 µM (inactive); in the assay on COLO 205, 67.1 µM (inactive). In addition, the GI50 in the assay on CCRF-CEM is > 100 µM (inactive); in the assay with KM12 it was 45.6 µM (inactive); in the assay on UACC-62 it was > 100 µM (inactive); with SK-OV-3 it was > 100 µM (inactive); with NCI-H226, > 100 µM (inactive).
Regarding `COc1cc(C2c3cc4c(cc3[C@@H](NCCN3CCCCC3)C3COC(=O)[C@H]23)OCO4)cc(OC)c1O` (some centres not stated), the GI50 in the assay on SNB-78 was 2.7 µM (inactive); in the assay with OVCAR-5, 1.69 µM (inactive); in the assay with KM-20L2, 1.53 µM (inactive); with SF-268 it was 0.628 µM (active); with HT-29 it was 1.23 µM (inactive); in the assay with IGROV-1 it was 1.46 µM (inactive). Besides, the GI50 in the assay on SN12C was 2.04 µM (inactive); in the assay on COLO 205, 0.782 µM (active); in the assay with CCRF-CEM, 0.055 µM (active); with KM12, 1.08 µM (active); with UACC-62 it was 0.298 µM (active); in the assay on SK-OV-3 it was 0.0526 µM (active). The GI50 in the assay on NCI-H226 is 0.0324 µM (active).

These data come from ChEMBL document CHEMBL1201862, “PubChem BioAssay data set” (2004).
